Reference: patent US4563461A, “Selective method for blocking 5HT2 receptors” (Eli Lilly and Company, priority 1983, dated 1986)
Where two headings read alike, the source gives them in different places.

Tests used:
[1] = target: T1, alpha receptors (Rattus norvegicus, UniProt P23944); experiment: Antagonism of norepinephrine contraction in isolated rat aorta (apparent dissociation constant, dose ratio); type: cell-based; conditions: for Dose-Ratio (norepinephrine ED50 with test compound / control ED50): 10^-5 molar test compound
T1 construct: their external jugular veins and thoracic aortas dissected free of connective tissue; from tissue; host or cells: thoracic aorta of male Wistar rats
T1 sequence (P23944 1-561): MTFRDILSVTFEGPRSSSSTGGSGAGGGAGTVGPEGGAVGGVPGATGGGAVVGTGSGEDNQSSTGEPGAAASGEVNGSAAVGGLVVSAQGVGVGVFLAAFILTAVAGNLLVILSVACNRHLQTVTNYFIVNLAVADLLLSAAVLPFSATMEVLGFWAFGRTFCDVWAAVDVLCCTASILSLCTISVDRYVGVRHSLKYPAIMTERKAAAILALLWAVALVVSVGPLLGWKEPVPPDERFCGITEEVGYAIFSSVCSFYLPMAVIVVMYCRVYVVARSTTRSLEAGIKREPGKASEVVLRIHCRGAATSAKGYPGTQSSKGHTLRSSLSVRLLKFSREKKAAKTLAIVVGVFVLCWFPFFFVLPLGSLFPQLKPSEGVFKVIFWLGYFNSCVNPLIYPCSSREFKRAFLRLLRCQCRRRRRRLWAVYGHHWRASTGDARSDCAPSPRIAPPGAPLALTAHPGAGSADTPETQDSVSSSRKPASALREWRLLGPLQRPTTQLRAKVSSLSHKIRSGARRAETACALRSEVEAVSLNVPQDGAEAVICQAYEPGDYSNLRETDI
Procedure: (§1) The apparent dissociation constants (KB) are a measure of affinity for 5HT2 and alpha receptors and are expressed as the negative logarithm and are determined according to the following protocol.
(§2) Male Wistar rats (150-300 gram weight) were killed and their external jugular veins and thoracic aortas dissected free of connective tissue, cannulated in situ and placed in a modified Krebs' bicarbonate buffer in a suitable tissue bath. Two L-shaped 30-gauge stainless-steel hypodermic needles were inserted in each cannula and the dissected vessels gently pushed onto the needles. One needle was attached with thread to a stationary glass rod and the other to the transducer. [The procedure employed was that described by Hooker, Calkins and Fleisch, Blood Vessels, 14, 1, (1977) for use with circular smooth muscle preparations.]
(§3) The modified Krebs' bicarbonate buffer had the following makeup: (concentrations in millimoles): sodium chloride, 118.2; potassium chloride, 4.6; calcium chloride dihydrate, 1.6; potassium dihydrogenphosphate, 1.2; magnesium sulfate, 1.2; dextrose, 10.0; sodium bicarbonate, 24.8; and water q.s. to 1000 g. The tissue baths were maintained at 37° C. and were aerated with 95% oxygen-5% CO2. An initial optimum resting force of 1 and 4 g. was applied to the jugular vein and aorta, respectively. Isometric contractions were recorded as changes in grams of force on a Beckman Dynograph with Statham UC-3 transducers and microscale accessory attachment. Tissues were allowed to equilibrate 1 to 2 hours before exposure to drugs. Control responses to serotonin in the jugular vein and to norepinephrine in the aorta were obtained. The vessels were then incubated with appropriate concentrations of antagonist for one hour. Responses to serotonin or to norepinephrine were then repeated in the presence of the antagonist. Contraction to serotonin was evaluated in the jugular vein since this tissue produces marked responses to serotonin in the absence of alpha receptors--see Cohen and Wiley, J. Pharm. Exp. Ther., 205, 400 (1978). Alpha receptor antagonist activity was evaluated in the aorta.
(§4) Apparent antagonist dissociation constants were determined for each concentration of antagonist according to the following equation: [formula] wherein [B] is the concentration of the antagonist and the dose ratio is the ED50 of the agonist in the presence of the antagonist divided by the control ED50.
The in vitro rat aorta preparation described above was used.

[2] = target: T2, 5HT2 receptors (Rattus norvegicus, UniProt P14842); experiment: Antagonism of serotonin contraction in isolated rat jugular vein (apparent dissociation constant); type: cell-based; conditions: for Ratio KB alpha / KB 5HT2: rat aorta KB over rat jugular vein KB; for Kb: rat jugular vein, agonist serotonin, antagonist incubated one hour, n in parentheses, read-out: 5HT2 -Log KB ± S.E. (converted)
T2 construct: their external jugular veins and thoracic aortas dissected free of connective tissue; from tissue; host or cells: external jugular vein of male Wistar rats
Procedure: as §1, §2, §3, §4

[3] = Blood pressure in spontaneously hypertensive rats (SHR); type: in vivo, rat; conditions: intraperitoneal, 10 mg./kg.
Procedure: In spontaneously hypertensive rats (SHR), in which blockade of alpha receptors but not 5HT2 receptors lowers blood pressure, there was no effect upon intraperitoneal administration of 1-isopropyl-6-methyl-8β-(1-methyl-2-hydroxy)propoxycarbonyl-5R-ergoline at a 10 mg./kg. dose.

[4] = target: T2, 5HT2 receptors; type: in vivo; conditions: pithed SHR, i.p.
Procedure: SHR were anesthesized with halothane, femoral arterial and venous catheters implanted as before and the trachea cannulated. Each rat was pithed by passing a steel rod through the right orbit and down the entire length of the spinal column. The steel rod remained in place for the duration of the experiment. Immediately after pithing, the rats were ventilated with room air via a rodent respirator which eliminated any anesthetic effects. […] The response was recorded and the blood pressure allowed to recover to control levels. […] The test drug was prepared fresh daily and administered by the intraperitoneal route.

[5] = system: alpha receptors; experiment: Shift of methoxamine pressor response in pithed SHR; type: in vivo, rat; conditions: i.p., 10 mg./kg.
Procedure: SHR were anesthesized with halothane, femoral arterial and venous catheters implanted as before and the trachea cannulated. Each rat was pithed by passing a steel rod through the right orbit and down the entire length of the spinal column. The steel rod remained in place for the duration of the experiment. Immediately after pithing, the rats were ventilated with room air via a rodent respirator which eliminated any anesthetic effects. An equilibration period of 15 minutes was observed prior to control measurements and administration of drugs or vehicle i.p. Increasing doses of serotonin or methoxamine were injected i.v. 15 minutes after the equilibration period. The response was recorded and the blood pressure allowed to recover to control levels. […] The test drug was prepared fresh daily and administered by the intraperitoneal route. The compound shifted the serotonin response 22 and 480 fold at 0.1 and 3 mg./kg. dosages whereas at a 10 mg./kg. dose there was no shift in the response to methoxamine, an alpha agonist.

[6] = rat aorta, agonist norepinephrine, antagonist incubated one hour, n in parentheses, read-out: alpha -Log KB ± S.E. (converted)

T2 sequence (P14842 whole entry): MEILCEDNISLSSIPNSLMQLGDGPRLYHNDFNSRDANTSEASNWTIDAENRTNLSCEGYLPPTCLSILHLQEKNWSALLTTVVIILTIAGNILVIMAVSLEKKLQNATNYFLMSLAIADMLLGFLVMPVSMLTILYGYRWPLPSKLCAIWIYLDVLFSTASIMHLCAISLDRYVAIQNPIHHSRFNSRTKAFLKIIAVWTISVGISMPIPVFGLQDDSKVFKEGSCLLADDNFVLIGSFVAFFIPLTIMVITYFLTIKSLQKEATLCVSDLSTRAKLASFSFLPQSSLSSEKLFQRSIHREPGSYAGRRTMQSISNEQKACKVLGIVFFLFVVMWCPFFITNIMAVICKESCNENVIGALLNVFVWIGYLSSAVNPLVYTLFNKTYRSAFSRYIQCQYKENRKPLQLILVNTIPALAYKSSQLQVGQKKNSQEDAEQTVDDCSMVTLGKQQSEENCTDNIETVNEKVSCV

| SMILES | Dose-Ratio (norepinephrine ED50 with test compound / control ED50) ([1]; rat aorta) | Ratio KB alpha / KB 5HT2 [2] | Kb [2] | Kb [1] | further results |
| --- | --- | --- | --- | --- | --- |
| C=CCn1cc2c3c(cccc31)[C@H]1C[C@@H](C(=O)OCCO)CN(C)[C@@H]1C2 [1-allyl-6-methyl-8β-(2-hydroxy)ethoxycarbonyl-5R-ergoline] | 2.4 | – | – | – | – |
| O=C(c1ccc(F)cc1)C1CCN(CCn2c(=O)[nH]c3ccccc3c2=O)CC1 [Ketanserin, reference compound] | – | – | – | – | Kb [1, 6]: 12.6 nM |
| CC(O)C(C)OC(=O)[C@@H]1C[C@@H]2c3cccc4c3c(cn4C(C)C)C[C@H]2N(C)C1 (stereo partly drawn) [1-isopropyl-6-methyl-8β-(1-methyl-2-hydroxy)propoxycarbonyl-5R-ergoline] | 3.6 | 300,000 | 0.0537 nM | 13800 nM | Effect on blood pressure [3]: no effect; Shift of the serotonin response ([4]; 0.1 mg./kg.): 22 fold; Shift of the serotonin response ([4]; 3 mg./kg.): 480 fold; Shift in the response to methoxamine [5]: no shift |
| CC(O)COC(=O)[C@@H]1C[C@@H]2c3cccc4c3c(cn4C(C)C)C[C@H]2N(C)C1 (stereo partly drawn) [1-isopropyl-6-methyl-8β-(2-hydroxy)propoxycarbonyl-5R-ergoline] | 1.0 | – | – | – | – |
| CNCC12CCC(c3ccccc31)c1ccccc12 [Benzoctamine] | – | 16 | 15.8 nM | 251 nM | – |
| Cc1cc(CCN2CCN(c3cccc(Cl)c3)CC2)n[nH]1 [Mepiprazole] | – | 0.4 | 12.6 nM | – | Kb [1, 6]: 5.01 nM |
| O=c1n(CCCN2CCN(c3cccc(Cl)c3)CC2)nc2ccccn12 [Trazodone, reference compound] | – | – | – | 158 nM | – |
